Source: patent publication US6479546B1, “Allosteric inhibitors of lipoxygenase” (The Regents of the University of California, priority 2000, dated 2002)
Where a name gives a salt, the structure may show the parent alone. Read-outs that look alike come from different tables or passages of the source.

Key:
[1] = Surface tension measurements (CMC); format: physicochemical
Experimental: Surface Tension Measurements. Buffers were used which correspond to those of the kinetic measurements. Surface tension was measured as described by Harkins et al., using a thin platinum plate (perimeter 2.5 cm) and a Cahn electro-microbalance. Harkins et al., J. Am. Chem. Soc. (1937) 59:2189-2197. Various amounts of surface active agent were added to a 30 ml buffer solution and the surface tension was continuously recorded. After each addition, a sufficiently long period of time (10-30 min.) was allowed to elapse before attaining a steady value of the surface tension. Critical micelle concentration (CMC) values were obtained by plotting the measured surface tensions versus the logarithm of the concentrations of the surface-active agent and recording the intercept of the two straight lines. The point at which a deviation from the straight line, as observed in the surface tension versus log [surface-active agent] plot, was defined as the start of pre-micellular aggregate formation. Harkins et al., supra; Verhagen et al., Chem. Phys. Lipids (1978) 22:255-259.

[2] = biological target: T1, SLO-1 (Glycine max, UniProt P08170); experiment: Steady state kinetics / inhibition studies, SLO-1; format: biochemical, soybean
T1 construct: made in house
T1 sequence (P08170 1-839): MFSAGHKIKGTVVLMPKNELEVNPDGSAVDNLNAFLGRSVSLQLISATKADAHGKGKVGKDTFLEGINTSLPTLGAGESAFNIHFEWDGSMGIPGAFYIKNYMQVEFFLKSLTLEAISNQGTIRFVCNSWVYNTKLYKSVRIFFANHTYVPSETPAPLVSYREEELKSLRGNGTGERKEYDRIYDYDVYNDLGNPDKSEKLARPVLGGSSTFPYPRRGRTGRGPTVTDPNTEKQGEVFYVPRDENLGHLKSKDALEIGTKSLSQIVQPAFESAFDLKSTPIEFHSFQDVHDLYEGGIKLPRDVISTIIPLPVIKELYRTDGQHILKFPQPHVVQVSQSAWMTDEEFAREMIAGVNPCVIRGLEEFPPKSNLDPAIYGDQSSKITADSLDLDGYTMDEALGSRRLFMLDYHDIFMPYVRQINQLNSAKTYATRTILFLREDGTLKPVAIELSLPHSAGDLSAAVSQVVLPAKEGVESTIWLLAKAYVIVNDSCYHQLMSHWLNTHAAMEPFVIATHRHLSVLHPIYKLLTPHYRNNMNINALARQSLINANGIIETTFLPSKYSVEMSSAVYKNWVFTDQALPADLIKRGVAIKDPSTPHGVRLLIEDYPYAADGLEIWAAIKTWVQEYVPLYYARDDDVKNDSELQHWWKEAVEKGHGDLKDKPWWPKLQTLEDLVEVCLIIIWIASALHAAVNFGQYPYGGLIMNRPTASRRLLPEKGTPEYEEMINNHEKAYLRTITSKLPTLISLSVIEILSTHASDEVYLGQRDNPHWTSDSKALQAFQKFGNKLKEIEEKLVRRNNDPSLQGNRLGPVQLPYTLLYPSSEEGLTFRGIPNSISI
Experimental: Steady State Kinetics. Lipoxygenase rates were determined by following the formation of product at 234 nm (ε=25,000 M^−1cm^−1) with a Hewlett-Packard 8453 UV-vis spectrophotometer. The destruction of 13-HPOD by the diode array spectrophotometer were negligible under these reaction conditions. All reactions were 2 ml in volume, run at room temperature (23° C.) and constantly stirred with a rotating magnetic bar. In experiments using SLO-1, kinetic reactions were performed in 0.1 M borate (pH 9.2), while reactions using 15-HLO were performed in 25 mM HEPES (pH 7.5). Substrate solutions used in each experiment were measured for accurate LA concentration by quantitatively converting substrate to product using soybean lipoxygenase-1. Enzymatic rates were measured between 1-50 μM LA with 1-25 μM OS for SLO-1 and lower than 2 μM LA for 15-HLO. Solutions containing LA and/or OS were sonicated for 3-5 minutes before use in kinetic experiments. Rate reactions were initiated by the addition of enzyme to final concentrations of 3 nM SLO-1 (80% iron content) and 200 nM 15-HLO (15% iron content). All kinetic parameters were determined by non-linear regression using Kaleidagraph software (Abelbeck).

[3] = biological target: T1, SLO-1; experiment: Kinetic isotope effect (KIE) titration, SLO-1; format: biochemical, soybean; conditions: for Kd: SLO-1, 5 μM LA/D-LA, pH 9.2, read-out: KD from hyperbolic fit of KIE
Experimental: Kinetic Isotope Effect Determination. Determination of the kinetic isotope effect (KIE) was similar to that previously published by Holman and coworkers with the following modifications. Lewis et al., J. Am. Chem. Soc. (1994) 116:795-796. Lipoxygenase is added (0.12 nM SLO-1 and 12 nM 15-HLO) to a protio/per-deutero LA mixture (60 mL, 5 μM LA/D-LA), monitored at 234 nm with a P-E Lambda 4 and stopped with an acid quench (5% glacial acetic acid) at less than 5% total LA/D-LA consumption. […] The acidified reaction mixture is extracted with methylene chloride (trimethylphosphite, which quantitatively reduces the labile 13-HPOD, is not needed since both the alcohol and the peroxide have the same elution time). […] (isocratic mobile phase: 74.9% Methanol :25% H2O: 0.1% Acetic acid). […] Lewis et al., supra. […] When the percent conversion (f) to product is less than 5%, this equation simplifies to ([[…]]), where [P-H] is protio-product concentration and [So-H] is the initial protio-substrate concentration. […] et al., Reaction Rates of Isotopic Molecules (R. E. Krieger Publishing, Florida)(1987). […] Greater substrate ratios than 2:1 were not used due to the expensive nature of the per-deutero substrate. Under these conditions, the upper limit for the KIE is greater than 130 and is limited by the vanishingly small peak area of the per-deutero 13-HPOD peak relative to the negative control. This RP-HPLC based method for determining molar protio/per-deutero 13-HPOD ratios gave results identical (within experimental error) to those obtained by EI-MS. No appreciable side products at any wavelength for 15-HLO or SLO-1 were observed, indicating no reaction branching. The OS titration experiments require 5 μM LA/D-LA to record product ratios. For the 15-HLO experiments (pH 7.5), OS concentrations above 6 μM were not feasible due to large amounts of a white emulsion at the extraction interface which inhibited product recovery. This emulsion was not observed for reactions performed with SLO-1 (pH 9.2). […] All kinetic data reported were measured in triplicate on two distinct days.

[4] = biological target: T2, 15-HLO (Homo sapiens, UniProt P16050); experiment: Kinetic isotope effect (KIE) titration, 15-HLO; format: biochemical
T2 construct: made in house
T2 sequence (P16050 1-662): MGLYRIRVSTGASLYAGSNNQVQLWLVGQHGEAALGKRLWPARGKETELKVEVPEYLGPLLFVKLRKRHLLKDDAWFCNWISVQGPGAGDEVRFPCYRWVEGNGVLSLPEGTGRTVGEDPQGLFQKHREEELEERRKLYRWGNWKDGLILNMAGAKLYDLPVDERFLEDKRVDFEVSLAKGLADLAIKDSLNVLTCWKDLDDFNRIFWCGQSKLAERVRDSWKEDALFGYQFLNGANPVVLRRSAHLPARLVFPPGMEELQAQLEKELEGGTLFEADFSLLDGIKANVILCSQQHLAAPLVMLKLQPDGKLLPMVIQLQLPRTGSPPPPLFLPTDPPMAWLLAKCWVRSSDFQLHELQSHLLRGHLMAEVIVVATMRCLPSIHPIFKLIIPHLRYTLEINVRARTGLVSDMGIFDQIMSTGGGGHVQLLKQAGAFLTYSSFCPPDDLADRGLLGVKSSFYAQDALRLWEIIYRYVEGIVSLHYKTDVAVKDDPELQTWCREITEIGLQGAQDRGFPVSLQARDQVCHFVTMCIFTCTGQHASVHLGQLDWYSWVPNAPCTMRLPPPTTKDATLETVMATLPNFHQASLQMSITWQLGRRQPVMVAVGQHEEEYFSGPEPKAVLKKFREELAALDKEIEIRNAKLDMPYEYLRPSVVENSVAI
Experimental: Kinetic Isotope Effect Determination. Determination of the kinetic isotope effect (KIE) was similar to that previously published by Holman and coworkers with the following modifications. Lewis et al., J. Am. Chem. Soc. (1994) 116:795-796. Lipoxygenase is added (0.12 nM SLO-1 and 12 nM 15-HLO) to a protio/per-deutero LA mixture (60 mL, 5 μM LA/D-LA), monitored at 234 nm with a P-E Lambda 4 and stopped with an acid quench (5% glacial acetic acid) at less than 5% total LA/D-LA consumption. It is important to note that diode array spectrophotometers degrade 13-hydroperoxy-9,11-(Z,E)-octadecadienoic acid (13-HPOD) and care should be taken if the reaction time length is longer than 5 minutes. The acidified reaction mixture is extracted with methylene chloride (trimethylphosphite, which quantitatively reduces the labile 13-HPOD, is not needed since both the alcohol and the peroxide have the same elution time). The methylene chloride layer is evaporated to dryness under vacuum, reconstituted in 50 μL running buffer, injected onto a C18 column (Higgins Analytical, 5 micron, 250×4.6 mm), and eluted at 1 mL/min. (isocratic mobile phase: 74.9% Methanol :25% H2O: 0.1% Acetic acid). […] All kinetic data reported were measured in triplicate on two distinct days.

Compound: CCCCC/C=C\C/C=C\CCCCCCCC(=O)O [LA, Linoleic Acid]
- CMC ([1]; 25 mM HEPES (pH 7.5)): 40 ± 10 µM
- CMC ([1]; 0.1 M borate (pH 9.2)): 150 ± 10 µM
- Kd ([2]; SLO-1, no appreciable substrate inhibition below 30 μM LA, read-out: KD (allosteric site)): > 30000 nM

Compound: CCCCCCCC/C=C\CCCCCCCC(=O)O [OA, oleic acid]
- Kd [3]: 36000 ± 14000 nM

Compound: CCCCCCCC/C=C\CCCCCCCCOS(=O)(=O)O [OS, (Z)-9-octadecenyl sulfate]
- Kd ([4]; 5 μM LA/D-LA, pH 7.5, read-out: KD from hyperbolic fit of KIE): 400 ± 50 nM
- Kd ([4]; conclusion, unit inferred, read-out: KD): 450 ± 50 nM
- lessens the rate of catalysis (k2 decreases) ([2]; SLO-1): 15%
- Ki ([2]; fit to Km (app) saturation curve, Eq. 3, read-out: Ki): 450 ± 160 nM
- Ki ([2]; fit to kcat/Km data, Eq. 4, β approximated 0.85, read-out: Ki): 860 ± 110 nM
- Ki ([2]; simulation Scheme 3, Eqs. 7 and 8, read-out: Kii (catalytic site), minimal value): ≥ 100000 nM
- Kd [3]: 600 ± 200 nM

Compound: CCCCCCCCCCCCOS(=O)(=O)[O-].[Na+] [SDS]
- effect on KIE ([3]; control for non-specific surfactant binding): no increase in the KIE
